Columns and labels:
Assay in all cases: radiometric filter-binding kinase assay
PIM2 (human) = PIM2 (human) (UniProt Q9P1W9)
YES1 (human) = YES1 (human) (UniProt P07947)
MARK2 (human) = MARK2 (human) (UniProt Q7KZI7)
STK3 (human) = STK3 (human) (UniProt Q13188)
PHKG1 (human) = PHKG1 (human) (UniProt Q16816)
NTRK1 (human) = NTRK1 (human) (UniProt P04629)
MAP3K1 (human) = MAP3K1 (human) (UniProt Q13233)
IKBKB (human) = IKBKB (human) (UniProt O14920)
PKN2 (human) = PKN2 (human) (UniProt Q16513)
MAPK10 (human) = MAPK10 (human) (UniProt P53779)
CHEK2 (human) = CHEK2 (human) (UniProt O96017)
CHEK2 (human), sequence (O96017 whole entry, looked up): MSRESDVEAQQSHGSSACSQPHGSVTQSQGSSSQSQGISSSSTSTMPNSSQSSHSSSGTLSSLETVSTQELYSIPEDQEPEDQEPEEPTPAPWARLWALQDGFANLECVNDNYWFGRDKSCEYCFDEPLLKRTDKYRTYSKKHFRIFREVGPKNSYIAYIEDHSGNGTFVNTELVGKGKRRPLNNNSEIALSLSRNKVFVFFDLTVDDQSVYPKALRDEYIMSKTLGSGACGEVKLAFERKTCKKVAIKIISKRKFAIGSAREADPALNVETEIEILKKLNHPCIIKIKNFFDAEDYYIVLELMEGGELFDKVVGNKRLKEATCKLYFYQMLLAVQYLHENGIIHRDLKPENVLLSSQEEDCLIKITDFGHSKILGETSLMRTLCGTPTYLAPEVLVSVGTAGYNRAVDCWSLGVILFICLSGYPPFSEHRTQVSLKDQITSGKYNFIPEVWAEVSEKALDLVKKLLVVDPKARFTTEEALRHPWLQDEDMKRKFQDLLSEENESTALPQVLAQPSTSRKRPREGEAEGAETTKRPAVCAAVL

MAPK15 (human) = MAPK15 (human) (UniProt Q8TD08)
[1] = target: STK11 CAB39 STRADA (human) (UniProt Q9Y376+Q7RTN6+Q15831)
STK11 CAB39 STRADA (human), sequence (Q15831 whole entry, looked up): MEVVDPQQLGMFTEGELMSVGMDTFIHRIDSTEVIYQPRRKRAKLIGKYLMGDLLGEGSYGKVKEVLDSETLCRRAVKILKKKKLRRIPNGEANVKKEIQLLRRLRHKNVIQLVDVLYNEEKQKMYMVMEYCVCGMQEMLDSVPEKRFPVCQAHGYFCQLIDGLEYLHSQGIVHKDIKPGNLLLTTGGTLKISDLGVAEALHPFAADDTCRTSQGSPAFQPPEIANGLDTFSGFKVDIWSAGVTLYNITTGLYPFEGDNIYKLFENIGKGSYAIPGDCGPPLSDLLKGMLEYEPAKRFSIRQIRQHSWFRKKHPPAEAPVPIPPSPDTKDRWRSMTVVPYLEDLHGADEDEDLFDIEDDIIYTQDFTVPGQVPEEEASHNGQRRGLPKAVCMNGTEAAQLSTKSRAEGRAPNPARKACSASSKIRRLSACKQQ
STK11 CAB39 STRADA (human), sequence (Q7RTN6 whole entry, looked up): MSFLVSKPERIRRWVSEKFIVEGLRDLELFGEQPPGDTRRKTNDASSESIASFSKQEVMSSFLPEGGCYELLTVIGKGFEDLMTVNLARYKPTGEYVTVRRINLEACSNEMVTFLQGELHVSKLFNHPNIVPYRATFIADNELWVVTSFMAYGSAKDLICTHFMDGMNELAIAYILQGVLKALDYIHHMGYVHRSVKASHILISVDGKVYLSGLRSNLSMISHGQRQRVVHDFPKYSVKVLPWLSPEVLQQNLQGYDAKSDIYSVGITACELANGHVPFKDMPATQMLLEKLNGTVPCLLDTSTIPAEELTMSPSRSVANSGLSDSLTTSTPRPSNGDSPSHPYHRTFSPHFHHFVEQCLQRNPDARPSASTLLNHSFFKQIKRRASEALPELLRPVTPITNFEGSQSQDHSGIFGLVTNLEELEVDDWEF
STK11 CAB39 STRADA (human), sequence (Q9Y376 whole entry, looked up): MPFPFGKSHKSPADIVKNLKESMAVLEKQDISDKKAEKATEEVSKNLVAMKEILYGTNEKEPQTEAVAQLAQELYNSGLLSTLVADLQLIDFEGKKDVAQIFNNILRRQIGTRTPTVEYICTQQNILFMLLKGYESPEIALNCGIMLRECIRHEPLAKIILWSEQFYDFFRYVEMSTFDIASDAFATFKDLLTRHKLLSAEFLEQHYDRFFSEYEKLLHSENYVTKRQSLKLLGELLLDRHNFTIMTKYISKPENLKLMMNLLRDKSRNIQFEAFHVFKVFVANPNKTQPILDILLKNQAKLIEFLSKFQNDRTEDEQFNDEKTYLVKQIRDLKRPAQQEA

MINK1 (human) = MINK1 (human) (UniProt Q8N4C8)
MKNK1 (human) = MKNK1 (human) (UniProt Q9BUB5)
RPS6KA1 KD1 KD2 (human) = RPS6KA1 KD1 KD2 (human) (UniProt Q15418)
IGF1R (human) = IGF1R (human) (UniProt P08069)
SRC (human) = SRC (human) (UniProt P12931)
MAPK9 (human) = MAPK9 (human) (UniProt P45984)
MAPK9 (human), sequence (P45984 whole entry, looked up): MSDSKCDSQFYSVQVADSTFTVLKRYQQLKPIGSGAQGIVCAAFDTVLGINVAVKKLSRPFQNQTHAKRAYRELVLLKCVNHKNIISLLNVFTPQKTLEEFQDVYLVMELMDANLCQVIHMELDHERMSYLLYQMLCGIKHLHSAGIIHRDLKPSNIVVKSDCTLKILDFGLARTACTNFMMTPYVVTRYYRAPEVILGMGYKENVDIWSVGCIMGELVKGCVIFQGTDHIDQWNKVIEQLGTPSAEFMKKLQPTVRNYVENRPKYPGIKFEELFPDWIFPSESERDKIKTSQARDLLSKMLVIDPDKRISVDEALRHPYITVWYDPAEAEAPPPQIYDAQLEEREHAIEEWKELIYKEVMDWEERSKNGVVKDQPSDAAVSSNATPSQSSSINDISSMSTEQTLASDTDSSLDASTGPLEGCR

PRKCA (human) = PRKCA (human) (UniProt P17252)
AURKB (human) = AURKB (human) (UniProt Q96GD4)
[2] = test system: AKT2 (human), P31751 [S474D]
MAPK1 (human) = MAPK1 (human) (UniProt P28482)
MAP3K5 (human) = MAP3K5 (human) (UniProt Q99683)
MAP3K5 (human), sequence (Q99683 whole entry, looked up): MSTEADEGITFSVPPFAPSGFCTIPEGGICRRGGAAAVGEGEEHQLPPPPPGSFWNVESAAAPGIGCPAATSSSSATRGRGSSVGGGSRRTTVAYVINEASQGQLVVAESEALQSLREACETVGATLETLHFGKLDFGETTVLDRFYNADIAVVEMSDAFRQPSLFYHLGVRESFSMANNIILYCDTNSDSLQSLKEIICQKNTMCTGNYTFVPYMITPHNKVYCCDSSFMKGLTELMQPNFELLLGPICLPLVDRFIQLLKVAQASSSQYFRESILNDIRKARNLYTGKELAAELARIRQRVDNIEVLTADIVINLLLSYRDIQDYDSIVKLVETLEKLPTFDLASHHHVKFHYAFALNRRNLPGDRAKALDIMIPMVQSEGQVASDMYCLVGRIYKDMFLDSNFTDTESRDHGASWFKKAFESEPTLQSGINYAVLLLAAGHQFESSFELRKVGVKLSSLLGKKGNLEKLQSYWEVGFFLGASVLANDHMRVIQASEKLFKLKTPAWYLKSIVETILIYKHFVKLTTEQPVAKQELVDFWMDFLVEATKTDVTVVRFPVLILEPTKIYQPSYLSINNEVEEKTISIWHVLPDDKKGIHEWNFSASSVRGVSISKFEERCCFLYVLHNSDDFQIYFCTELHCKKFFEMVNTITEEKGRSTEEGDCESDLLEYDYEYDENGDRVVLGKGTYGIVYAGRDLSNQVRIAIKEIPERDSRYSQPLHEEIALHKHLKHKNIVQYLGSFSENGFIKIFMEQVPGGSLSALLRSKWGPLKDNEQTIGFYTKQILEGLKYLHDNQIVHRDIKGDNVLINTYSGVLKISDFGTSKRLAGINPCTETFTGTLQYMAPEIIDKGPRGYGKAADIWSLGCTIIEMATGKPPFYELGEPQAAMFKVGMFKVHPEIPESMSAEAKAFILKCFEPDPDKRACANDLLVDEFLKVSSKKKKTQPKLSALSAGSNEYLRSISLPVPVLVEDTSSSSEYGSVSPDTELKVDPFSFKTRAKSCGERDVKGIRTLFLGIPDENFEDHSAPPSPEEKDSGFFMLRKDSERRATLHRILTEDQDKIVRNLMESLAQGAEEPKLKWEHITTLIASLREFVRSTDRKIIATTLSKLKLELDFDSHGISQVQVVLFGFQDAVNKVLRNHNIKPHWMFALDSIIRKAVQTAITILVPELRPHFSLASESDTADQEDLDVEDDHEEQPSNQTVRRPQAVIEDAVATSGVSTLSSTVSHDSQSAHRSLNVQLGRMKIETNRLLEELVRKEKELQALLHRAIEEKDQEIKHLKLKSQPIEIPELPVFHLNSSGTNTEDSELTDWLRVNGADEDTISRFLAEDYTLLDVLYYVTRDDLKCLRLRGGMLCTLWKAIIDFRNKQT

NEK2 (human) = NEK2 (human) (UniProt P51955)
NEK2 (human), sequence (P51955 whole entry, looked up): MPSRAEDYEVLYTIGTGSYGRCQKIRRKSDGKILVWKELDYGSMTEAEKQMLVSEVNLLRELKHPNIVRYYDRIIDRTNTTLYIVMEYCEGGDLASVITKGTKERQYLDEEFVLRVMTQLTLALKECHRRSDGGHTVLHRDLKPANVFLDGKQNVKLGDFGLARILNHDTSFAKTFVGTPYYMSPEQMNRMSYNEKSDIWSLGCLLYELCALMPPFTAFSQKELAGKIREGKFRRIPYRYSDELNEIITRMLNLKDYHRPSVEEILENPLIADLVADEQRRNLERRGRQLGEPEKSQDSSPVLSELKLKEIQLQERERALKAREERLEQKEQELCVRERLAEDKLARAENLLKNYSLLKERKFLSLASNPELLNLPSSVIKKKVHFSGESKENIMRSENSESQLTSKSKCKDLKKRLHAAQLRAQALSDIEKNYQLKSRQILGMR

PRKACA (human) = PRKACA (human) (UniProt P17612)
EPHB4 (human) = EPHB4 (human) (UniProt P54760)
CHEK1 (human) = CHEK1 (human) (UniProt O14757)
CAMKK2 (human) = CAMKK2 (human) (UniProt Q96RR4)
MAP2K1 (human) = MAP2K1 (human) (UniProt Q02750)
MAP2K1 (human), sequence (Q02750 whole entry, looked up): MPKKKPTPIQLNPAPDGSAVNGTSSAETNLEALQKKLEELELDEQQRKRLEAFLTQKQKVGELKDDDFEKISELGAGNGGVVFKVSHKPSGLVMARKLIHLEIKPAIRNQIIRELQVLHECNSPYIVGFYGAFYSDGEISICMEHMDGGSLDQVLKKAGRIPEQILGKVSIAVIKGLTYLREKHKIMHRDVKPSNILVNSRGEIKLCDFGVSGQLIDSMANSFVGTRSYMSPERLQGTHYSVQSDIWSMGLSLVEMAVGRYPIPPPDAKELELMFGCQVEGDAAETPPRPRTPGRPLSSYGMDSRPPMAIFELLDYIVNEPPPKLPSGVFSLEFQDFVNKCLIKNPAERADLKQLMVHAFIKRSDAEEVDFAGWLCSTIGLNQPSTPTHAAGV

MAPK3 (human) = MAPK3 (human) (UniProt P27361)
GCK (human) = GCK (human) (UniProt Q12851)
PRKAA1 or PRKAA2 (rat) = details: accession and sequence are those of the human protein
MKNK2 (human) = MKNK2 (human) (UniProt Q9HBH9)
MAPKAPK2 (human) = MAPKAPK2 (human) (UniProt P49137)

PIM2 (human), sequence (Q9P1W9 whole entry, looked up): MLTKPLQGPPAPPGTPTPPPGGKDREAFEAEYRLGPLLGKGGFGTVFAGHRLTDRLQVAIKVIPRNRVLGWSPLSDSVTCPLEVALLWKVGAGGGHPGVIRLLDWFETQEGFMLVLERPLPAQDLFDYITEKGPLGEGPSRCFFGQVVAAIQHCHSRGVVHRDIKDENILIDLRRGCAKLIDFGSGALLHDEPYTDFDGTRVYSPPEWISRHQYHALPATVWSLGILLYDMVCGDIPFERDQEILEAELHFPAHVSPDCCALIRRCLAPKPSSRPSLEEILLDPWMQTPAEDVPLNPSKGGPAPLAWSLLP

Structure (SMILES): NC1(c2ccc(-c3nc4ccn5c(=O)[nH]nc5c4cc3-c3ccccc3)cc2)CCC1
- residual activity (PIM2 (human); compound 0.1 µM): 86%
- residual activity (PIM2 (human); compound 1.0 µM): 105%
- residual activity (PIM2 (human); compound 10.0 µM): 97%
- residual activity (YES1 (human); compound 0.1 µM): 102%
- residual activity (YES1 (human); compound 1.0 µM): 99%
- residual activity (YES1 (human); compound 10.0 µM): 68%
- residual activity (MARK2 (human); compound 0.1 µM): 102%
- residual activity (MARK2 (human); compound 1.0 µM): 97%
- residual activity (MARK2 (human); compound 10.0 µM): 94%
- residual activity (STK3 (human); compound 0.1 µM): 79%
- residual activity (STK3 (human); compound 1.0 µM): 97%
- residual activity (STK3 (human); compound 10.0 µM): 94%
- residual activity (PHKG1 (human); compound 0.1 µM): 109%
- residual activity (PHKG1 (human); compound 1.0 µM): 98%
- residual activity (PHKG1 (human); compound 10.0 µM): 68%
- residual activity (NTRK1 (human); compound 0.1 µM): 107%
- residual activity (NTRK1 (human); compound 1.0 µM): 90%
- residual activity (NTRK1 (human); compound 10.0 µM): 87%
- residual activity (MAP3K1 (human); compound 0.1 µM): 114%
- residual activity (MAP3K1 (human); compound 1.0 µM): 101%
- residual activity (MAP3K1 (human); compound 10.0 µM): 83%
- residual activity (IKBKB (human); compound 0.1 µM): 112%
- residual activity (IKBKB (human); compound 1.0 µM): 98%
- residual activity (IKBKB (human); compound 10.0 µM): 89%
- residual activity (PKN2 (human); compound 0.1 µM): 95%
- residual activity (PKN2 (human); compound 1.0 µM): 96%
- residual activity (PKN2 (human); compound 10.0 µM): 92%
- residual activity (MAPK10 (human); compound 0.1 µM): 93%
- residual activity (MAPK10 (human); compound 1.0 µM): 91%
- residual activity (MAPK10 (human); compound 10.0 µM): 84%
- residual activity (CHEK2 (human); compound 0.1 µM): 122%
- residual activity (CHEK2 (human); compound 1.0 µM): 81%
- residual activity (CHEK2 (human); compound 10.0 µM): 39%
- residual activity (MAPK15 (human); compound 0.1 µM): 106%
- residual activity (MAPK15 (human); compound 1.0 µM): 89%
- residual activity (MAPK15 (human); compound 10.0 µM): 93%
- residual activity ([1]; compound 0.1 µM): 102%
- residual activity ([1]; compound 1.0 µM): 85%
- residual activity ([1]; compound 10.0 µM): 86%
- residual activity (MINK1 (human); compound 0.1 µM): 106%
- residual activity (MINK1 (human); compound 1.0 µM): 86%
- residual activity (MINK1 (human); compound 10.0 µM): 69%
- residual activity (MKNK1 (human); compound 0.1 µM): 105%
- residual activity (MKNK1 (human); compound 1.0 µM): 104%
- residual activity (MKNK1 (human); compound 10.0 µM): 58%
- residual activity (RPS6KA1 KD1 KD2 (human); compound 0.1 µM): 101%
- residual activity (RPS6KA1 KD1 KD2 (human); compound 1.0 µM): 87%
- residual activity (RPS6KA1 KD1 KD2 (human); compound 10.0 µM): 62%
- residual activity (IGF1R (human); compound 0.1 µM): 116%
- residual activity (IGF1R (human); compound 1.0 µM): 85%
- residual activity (IGF1R (human); compound 10.0 µM): 55%
- residual activity (SRC (human); compound 0.1 µM): 101%
- residual activity (SRC (human); compound 1.0 µM): 89%
- residual activity (SRC (human); compound 10.0 µM): 105%
- residual activity (MAPK9 (human); compound 0.1 µM): 83%
- residual activity (MAPK9 (human); compound 1.0 µM): 94%
- residual activity (MAPK9 (human); compound 10.0 µM): 97%
- residual activity (PRKCA (human); compound 0.1 µM): 97%
- residual activity (PRKCA (human); compound 1.0 µM): 94%
- residual activity (PRKCA (human); compound 10.0 µM): 98%
- residual activity (AURKB (human); compound 0.1 µM): 106%
- residual activity (AURKB (human); compound 1.0 µM): 88%
- residual activity (AURKB (human); compound 10.0 µM): 78%
- residual activity ([2]; compound 0.1 µM): 69%
- residual activity ([2]; compound 1.0 µM): 86%
- residual activity ([2]; compound 10.0 µM): 68%
- residual activity (MAPK1 (human); compound 0.1 µM): 104%
- residual activity (MAPK1 (human); compound 1.0 µM): 96%
- residual activity (MAPK1 (human); compound 10.0 µM): 75%
- residual activity (MAP3K5 (human); compound 0.1 µM): 97%
- residual activity (MAP3K5 (human); compound 1.0 µM): 87%
- residual activity (MAP3K5 (human); compound 10.0 µM): 90%
- residual activity (NEK2 (human); compound 0.1 µM): 95%
- residual activity (NEK2 (human); compound 1.0 µM): 87%
- residual activity (NEK2 (human); compound 10.0 µM): 87%
- residual activity (PRKACA (human); compound 0.1 µM): 104%
- residual activity (PRKACA (human); compound 1.0 µM): 91%
- residual activity (PRKACA (human); compound 10.0 µM): 90%
- residual activity (EPHB4 (human); compound 0.1 µM): 101%
- residual activity (EPHB4 (human); compound 1.0 µM): 105%
- residual activity (EPHB4 (human); compound 10.0 µM): 86%
- residual activity (CHEK1 (human); compound 0.1 µM): 96%
- residual activity (CHEK1 (human); compound 1.0 µM): 78%
- residual activity (CHEK1 (human); compound 10.0 µM): 45%
- residual activity (CAMKK2 (human); compound 0.1 µM): 92%
- residual activity (CAMKK2 (human); compound 1.0 µM): 99%
- residual activity (CAMKK2 (human); compound 10.0 µM): 84%
- residual activity (MAP2K1 (human); compound 0.1 µM): 83%
- residual activity (MAP2K1 (human); compound 1.0 µM): 72%
- residual activity (MAP2K1 (human); compound 10.0 µM): 90%
- residual activity (MAPK3 (human); compound 0.1 µM): 108%
- residual activity (MAPK3 (human); compound 1.0 µM): 87%
- residual activity (MAPK3 (human); compound 10.0 µM): 93%
- residual activity (GCK (human); compound 0.1 µM): 108%
- residual activity (GCK (human); compound 1.0 µM): 97%
- residual activity (GCK (human); compound 10.0 µM): 85%
- residual activity (PRKAA1 or PRKAA2 (rat); compound 0.1 µM): 98%
- residual activity (PRKAA1 or PRKAA2 (rat); compound 1.0 µM): 85%
- residual activity (PRKAA1 or PRKAA2 (rat); compound 10.0 µM): 83%
- residual activity (MKNK2 (human); compound 0.1 µM): 90%
- residual activity (MKNK2 (human); compound 1.0 µM): 100%
- residual activity (MKNK2 (human); compound 10.0 µM): 92%
- residual activity (MAPKAPK2 (human); compound 0.1 µM): 99%
- residual activity (MAPKAPK2 (human); compound 1.0 µM): 110%
- residual activity (MAPKAPK2 (human); compound 10.0 µM): 88%

Source: the kinase profiling compilation of Christmann-Franck et al. (2016)
